We go through one compound from US20070286890A1, “Eyelash applicator and method” (priority 2006, published 2007).

In the series the test system is eyelashes of healthy female volunteers. As to the kind of experiment: Open-label study of Lumigan applied with an applicator to the upper eyelid margin, four months. The class given is in vivo, human.
[1] abbreviates: one drop on applicator tip, applied to lid margin of both upper eyelids before bedtime, through week 12, 25 volunteers, no controls, preliminary findings.

Structures are written as SMILES.

As for `CCNC(=O)CCC/C=C\C[C@@H]1[C@@H](/C=C/[C@@H](O)CCc2ccccc2)[C@H](O)C[C@@H]1O` [Lumigan®, cyclopentane N-ethyl heptanamide-5-cis-2-(3α-hydroxy-5-phenyl-1trans-pentenyl)-3,5-dihydroxy, [1α,2β,3α,5α]], under setting [1], the “Darker and thicker lashes, additional lashes” value is “many grew darker and thicker lashes as well as additional lashes”; the “Eyelash length (longer lashes)” value is reported as “Every participant grew longer lashes”. Further, the “Growth of lower lid lashes and eyebrow hairs” value (patients applied Lumigan "on their own" to these areas) is “grew lower lid lashes and eyebrow hairs”. Under “topical application to upper eyelid margin, through week 12, visits up to week 16, preliminary findings”, the “Side effects (vision, IOP, ocular irritation, periocular pigmentary changes)” value is “Minimal Side Effects”.
